Reference: patent US7375106B2, “Synergistic combination of an opioid analgesic and a NSAID” (N.V. Organon, priority 2002, dated 2008)

How the values were obtained:
[1] = tested on: licking of the formalin injected paw (Phase 2, 20-30 min); assay: Formalin paw test, determination of ID50 of single agents (experiment 1); assay type: in vivo, male mice (Hsd Ola:ICR); conditions: single agent; for Effect on Phase 2 licking: i.v., increasing doses; for ID50 (μg/kg) for 2nd phase of licking (95% confidence limits): intravenously 15 min before formalin (20 μl; 3%), 20-30 min after formalin
Experimental: Six mice were observed simultaneously.
All test agents were administered via a tail vein. […] Each animal was used once only.
Animals (n=6 for each dose/drug) received increasing doses of morphine, ketorolac, indomethacin, the hydrochloride salt of Org 41793 (Org 43273) or vehicle administered intravenously 15 min before injection of formalin (20 μl; 3%) into the plantar surface of the left hindpaw. Data were plotted as the mean time spent licking the formalin injected paw±s.e.m for each of the two time periods (0-5 & 20-30 min) and an ID50 for the group calculated. To calculate the ID50 for the second phase of licking, the time spent licking following test drug treatment was calculated as a percentage of the time spent licking by vehicle-treated mice. An ID50 was then calculated using a non-linear regression fit, sigmoidal dose-response with constants of 0 and 100 for the bottom and top, respectively (GraphPad Prism software).

[2] = tested on: licking of the formalin injected paw (Phase 2, 20-30 min); assay: Formalin paw test, co-administration in constant dose ratio with isobolographic analysis (experiment 2); conditions: for Theoretical ID50 (μg/kg) for 2nd phase of licking (95% confidence limits): component dose at theoretical additive point; for Theoretical ID50 (μg/kg) for 2nd phase of licking (95% confidence limits) / Experimental ID50 (μg/kg) for 2nd phase of licking (95% confidence limits): i.v.; for Experimental ID50 (μg/kg) for 2nd phase of licking (95% confidence limits): component dose, constant dose ratio; for Effect on amount of morphine or Org 41793 required to elicit antinociception: second phase of licking
Experimental: In mice, recording the time spent licking or biting the injected paw is the most common method of behavioural assessment.
Experiments were performed on male mice (Hsd Ola:ICR) from Harlan UK Ltd. (Bicester, UK). Subjects were grouped on receipt and acclimatised for a minimum of 5 days at a constant temperature (21°±1° C.) under a 12-hour light/12-hour dark cycle. Mice were tail-marked. At the end of the study all mice were euthanized with CO2 or cervical dislocation.
Following subcutaneous formalin injection into the plantar surface of the paw, animals were placed in a Perspex box on a glass plate. A piece of black cardboard was placed on top of the box. A video camera (Sony) placed beneath the glass plate was then used to record the mice for 45 min after formalin injection. Six mice were observed simultaneously. The video camera was linked to a PC and the video images captured as MPEG files using a software package (Studio MP10). The MPEG file was later transferred to CD for offline analysis. A behavioural scoring program (The Observer) was then used to measure the time the mice spent licking the injected paw. Two blocks of time were analysed: 0-5 min (Phase 1) and 20-30 min (Phase 2). These two time periods were chosen to reflect the two phases of licking that typically occur after formalin injection.
All test agents were administered via a tail vein. […] Animals were weighed immediately prior to testing and all test agents were administered in a dosing volume of 5 ml/kg. Each animal was used once only.
The ID50 values calculated in experiment 1 for the second phase licking as previously described were used for this experiment. […] The ID50 of the total dose of the mixture was then calculated from this dose-response curve.
Testing for a significant difference by t-test was not possible since confidence intervals (CIs) were not symmetric around the theoretical additive ID50.

[3] = combination Org 41793 with ketorolac
[4] = combination Org 41793 with ketorolac, listed as ketorolac
[5] = combination Org 41793 with indomethacin
[6] = combination Org 41793 with indomethacin, listed as indomethacin

SMILES | Effect on Phase 2 licking [1] | ID50 (μg/kg) for 2nd phase of licking (95% confidence limits) [1] | ID50 (μg/kg) for 2nd phase of licking (95% confidence limits) ([1]; listed as ketorolac) | Theoretical ID50 (μg/kg) for 2nd phase of licking (95% confidence limits) [2, 3] | Theoretical ID50 (μg/kg) for 2nd phase of licking (95% confidence limits) [2, 4] | Experimental ID50 (μg/kg) for 2nd phase of licking (95% confidence limits) [2, 3] | Experimental ID50 (μg/kg) for 2nd phase of licking (95% confidence limits) [2, 4] | Effect on amount of morphine or Org 41793 required to elicit antinociception [2] | ID50 (μg/kg) for 2nd phase of licking (95% confidence limits) ([1]; listed as morphine) | ID50 (μg/kg) for 2nd phase of licking (95% confidence limits) ([1]; listed as indomethacin) | Theoretical ID50 (μg/kg) for 2nd phase of licking (95% confidence limits) [2, 5] | Theoretical ID50 (μg/kg) for 2nd phase of licking (95% confidence limits) [2, 6] | Experimental ID50 (μg/kg) for 2nd phase of licking (95% confidence limits) [2, 5] | Experimental ID50 (μg/kg) for 2nd phase of licking (95% confidence limits) [2, 6]
C=CCN1C[C@H](C)N([C@@H](c2cccc(O)c2)c2cccc(C(=O)N(C)c3cccc(F)c3)c2)C[C@H]1C [Org 41793, 3-[(αR)-α-((2S,5R)-4-allyl-2,5-dimethyl-1-piperazinyl)-3-hydroxybenzyl]-N-(3-fluorophenyl)-N-methylbenzamide] | dose-dependent inhibition | 92 (60-140) μg/kg | – | – | – | – | – | – | – | – | – | – | – | –
O=C(c1ccccc1)c1ccc2n1CCC2C(=O)O (racemic) [Ketorolac, (±)-5-benzoyl-2,3-dihydro-1H-pyrrolizine-1-carboxylic acid, 2-amino-2-(hydroxymethyl)-1,3-propanediol] | dose-dependent inhibition | 70 (40-134) μg/kg | 70 µg/kg | Ketorolac: 35 (20-67) μg/kg | 35 µg/kg | Ketorolac: 5 (2-12) μg/kg | 5 µg/kg | opioid sparing | – | – | – | – | – | –
CN1CC[C@]23c4c5ccc(O)c4O[C@H]2[C@@H](O)C=C[C@H]3[C@H]1C5.O.O.O.O.O.O=S(=O)(O)O [Morphine, Morphine sulphate pentahydrate] | dose-dependent inhibition | 870 (496-1522) μg/kg | – | – | – | – | – | – | 870 µg/kg | – | – | – | – | –
COc1ccc2c(c1)c(CC(=O)O)c(C)n2C(=O)c1ccc(Cl)cc1 [Indomethacin, indomethacin] | dose-dependent inhibition | 340 (218-531) μg/kg | – | – | – | – | – | opioid sparing | – | 340 µg/kg | Indomethacin: 170 (109- μg/kg | 170 µg/kg | Indomethacin: 40 (26-58) μg/kg | 40 µg/kg
